Assay results as given in patent US12077503B2, “Substituted cyclic amides and their use as herbicides” (FMC CORPORATION, priority 2015, dated 2024).

Legend:
Format in all cases: in vivo
[1] = system: ryegrass, Italian (Italian ryegrass, Lolium multiflorum); test: Test A preemergence; conditions: Lolium multiflorum, pre-emergence, 240 h, preemergence, 0 to 100 scale where 0 is no effect and 100 is complete control, read-out: Ryegrass, Italian plant response rating
Outline: (§1)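 Preemergence soil spray on seeded pots or post-emergence spray on 1–2 leaf plants, in loam–sand blend. Greenhouse ~10 d. Visual rating 0–100 against untreated plants.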

[2] = system: wheat (Triticum aestivum); test: Test A postemergence; conditions: Triticum aestivum, post-emergence, 240 h, postemergence
Outline: as §1

[3] = system: giant foxtail (Setaria faberii); test: Test A postemergence; conditions: Setaria faberi, post-emergence, 240 h, postemergence
Outline: as §1

[4] = system: pigweed (Amaranthus retroflexus); test: Test A postemergence; conditions: Amaranthus retroflexus, post-emergence, 240 h, postemergence
Outline: as §1

[5] = system: ragweed (common ragweed, Ambrosia elatior); test: Test A postemergence; conditions: Ambrosia artemisiifolia, post-emergence, 240 h, postemergence
Outline: as §1

[6] = system: ryegrass, Italian (Italian ryegrass, Lolium multiflorum); test: Test A postemergence; conditions: Lolium multiflorum, post-emergence, 240 h, postemergence
Outline: as §1

Kochia (Kochia scoparia) = test: Test A postemergence; conditions: Bassia scoparia, post-emergence, 240 h, postemergence
Outline: as §1

[7] = system: blackgrass (Alopecurus myosuroides); test: Test A postemergence; conditions: Alopecurus myosuroides, post-emergence, 240 h, postemergence
Outline: as §1

corn (Zea mays) = test: Test A postemergence; conditions: Zea mays, post-emergence, 240 h, postemergence
Outline: as §1

[8] = system: Galium (catchweed bedstraw, Galium aparine); test: Test A postemergence; conditions: Galium, post-emergence, 240 h, postemergence
Outline: as §1

[9] = system: barnyardgrass (Echinochloa crus-galli); test: Test A postemergence; conditions: Echinochloa crus-galli, post-emergence, 240 h, postemergence
Outline: as §1

rice (Oryra sativa) = test: Test B flooded paddy test; conditions: Oryza sativa, 250 g ai/ha, Flood; 0 to 100 scale where 0 is no effect and 100 is complete control; read-out: Rice plant response rating
Outline: (§2)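 Response scored visually against untreated controls, 0 = no effect and 100 = complete control, 13–15 d after treatment in the greenhouse. Compounds added to paddy water held 3 cm above soil surface. Treatment given at 2-leaf stage.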

[10] = system: sedge, umbrella (small-flower umbrella sedge, Cyperus difformis); test: Test B flooded paddy test; conditions: Cyperus difformis, 250 g ai/ha, Flood; 0 to 100 scale where 0 is no effect and 100 is complete control; read-out: Sedge, Umbrella plant response rating
Outline: as §2

[11] = system: ducksalad (Heteranthera limosa); test: Test B flooded paddy test; conditions: Heteranthera limosa, 250 g ai/ha, Flood; 0 to 100 scale where 0 is no effect and 100 is complete control; read-out: Ducksalad plant response rating
Outline: as §2

[12] = system: barnyardgrass (Echinochloa crus-galli); test: Test B flooded paddy test; conditions: Echinochloa crus-galli, 250 g ai/ha, Flood; 0 to 100 scale where 0 is no effect and 100 is complete control; read-out: Barnyardgrass plant response rating
Outline: as §2

Question: What does the source list for `Cc1nc([C@H]2CNC(=O)[C@@H]2C(=O)Nc2cccc(F)c2F)cs1` [Compound 1180]?
Answer: pest or weed control at 125 g/ha ([1]; 125 g ai/ha, approx. 10 d): 0%; pest or weed control at 500 g/ha ([1]; 500 g ai/ha): 0%; plant injury at 125 g/ha ([2]; 125 g ai/ha, visual injury vs untreated controls after approx. 10 d, 0 = no effect, 100 = complete control, read-out: Wheat plant response rating (0 to 100 scale)): 0%; plant injury at 500 g/ha ([2]; 500 g ai/ha, 0 to 100 scale, 0 is no effect, 100 is complete control, read-out: Wheat plant response rating): 0%; pest or weed control at 125 g/ha ([3]; 125 g ai/ha, visual injury vs untreated controls after approx. 10 d, 0 = no effect, 100 = complete control, read-out: Foxtail, Giant plant response rating (0 to 100 scale)): 0%; pest or weed control at 500 g/ha ([3]; 500 g ai/ha, 0 to 100 scale, 0 is no effect, 100 is complete control, read-out: Foxtail, Giant plant response rating): 0%; pest or weed control at 125 g/ha ([4]; 125 g ai/ha, visual injury vs untreated controls after approx. 10 d, 0 = no effect, 100 = complete control, read-out: Pigweed plant response rating (0 to 100 scale)): 0%; pest or weed control at 500 g/ha ([4]; 500 g ai/ha, 0 to 100 scale, 0 is no effect, 100 is complete control, read-out: Pigweed plant response rating): 0%; pest or weed control at 125 g/ha ([5]; 125 g ai/ha, visual injury vs untreated controls after approx. 10 d, 0 = no effect, 100 = complete control, read-out: Ragweed plant response rating (0 to 100 scale)): 0%; pest or weed control at 500 g/ha ([5]; 500 g ai/ha, 0 to 100 scale, 0 is no effect, 100 is complete control, read-out: Ragweed plant response rating): 0%; pest or weed control at 125 g/ha ([6]; 125 g ai/ha, visual injury vs untreated controls after approx. 10 d, 0 = no effect, 100 = complete control, read-out: Ryegrass, Italian plant response rating (0 to 100 scale)): 0%; pest or weed control at 500 g/ha ([6]; 500 g ai/ha, 0 to 100 scale, 0 is no effect, 100 is complete control, read-out: Ryegrass, Italian plant response rating): 0%; pest or weed control at 125 g/ha (Kochia (Kochia scoparia); 125 g ai/ha, visual injury vs untreated controls after approx. 10 d, 0 = no effect, 100 = complete control, read-out: Kochia plant response rating (0 to 100 scale)): 0%; pest or weed control at 500 g/ha (Kochia (Kochia scoparia); 500 g ai/ha, 0 to 100 scale, 0 is no effect, 100 is complete control, read-out: Kochia plant response rating): 0%; pest or weed control at 125 g/ha ([7]; 125 g ai/ha, visual injury vs untreated controls after approx. 10 d, 0 = no effect, 100 = complete control, read-out: Blackgrass plant response rating (0 to 100 scale)): 0%; pest or weed control at 500 g/ha ([7]; 500 g ai/ha, 0 to 100 scale, 0 is no effect, 100 is complete control, read-out: Blackgrass plant response rating): 0%; plant injury at 125 g/ha (corn (Zea mays); 125 g ai/ha, visual injury vs untreated controls after approx. 10 d, 0 = no effect, 100 = complete control, read-out: Corn plant response rating (0 to 100 scale)): 0%; plant injury at 500 g/ha (corn (Zea mays); 500 g ai/ha, 0 to 100 scale, 0 is no effect, 100 is complete control, read-out: Corn plant response rating): 0%; pest or weed control at 125 g/ha ([8]; 125 g ai/ha, visual injury vs untreated controls after approx. 10 d, 0 = no effect, 100 = complete control, read-out: Galium plant response rating (0 to 100 scale)): 0%; pest or weed control at 500 g/ha ([8]; 500 g ai/ha, 0 to 100 scale, 0 is no effect, 100 is complete control, read-out: Galium plant response rating): 0%; pest or weed control at 125 g/ha ([9]; 125 g ai/ha, visual injury vs untreated controls after approx. 10 d, 0 = no effect, 100 = complete control, read-out: Barnyardgrass plant response rating (0 to 100 scale)): 0%; pest or weed control at 500 g/ha ([9]; 500 g ai/ha, 0 to 100 scale, 0 is no effect, 100 is complete control, read-out: Barnyardgrass plant response rating): 0%; pest or weed control at 250 g/ha (rice (Oryra sativa)): 0%; pest or weed control at 250 g/ha [10]: 0%; pest or weed control at 250 g/ha [11]: 85%; pest or weed control at 250 g/ha [12]: 0%
